Laboratory results reported in patent US12391679B2, “Benzamide-substituted bicyclic imidazo- and pyrazolo-fused -pyridine, -pyrimide, and -pyridazine compounds for treatment of inflammatory diseases” (ONCO3R Therapeutics BV, priority 2019, dated 2025).

What was measured:
[1] = tested on: LPS-induced TNFα in monocyte-derived macrophages; assay: MdM assay: LPS-triggered TNFα (ELISA); type: cell-based, human; details: Macrophage; human MdM; LPS 200 ng/mL; supernatant after 20 h; inhibition of TNFα; read-out: TNFα EC50
Outline: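 TNFα secretion quantified by streptavidin-HRP/luminol sandwich ELISA in supernatants collected 20 h after LPS (200 ng/mL). Macrophages derived from magnetically isolated human CD14+ monocytes were used at day 10, with compound added 1 h before LPS; final DMSO 0.2%.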

[2] = target: T1, SIK2 (Homo sapiens, UniProt Q9H0K1); assay: ADP-Glo kinase assay, SIK2; type: biochemical
T1 construct: purchased ThermoFisher Scientific PV4792
Outline: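 Steps: add enzyme–substrate mixture; start with diluted ATP; incubate RT 120 min; add ADP-Glo Reagent to terminate and remove unconsumed ATP, 40 min; add detection reagent, 30 min; read luminescence. DMSO at 1% and staurosporine at 10 μM (final) define assay windows.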

T1 sequence (Q9H0K1 whole entry): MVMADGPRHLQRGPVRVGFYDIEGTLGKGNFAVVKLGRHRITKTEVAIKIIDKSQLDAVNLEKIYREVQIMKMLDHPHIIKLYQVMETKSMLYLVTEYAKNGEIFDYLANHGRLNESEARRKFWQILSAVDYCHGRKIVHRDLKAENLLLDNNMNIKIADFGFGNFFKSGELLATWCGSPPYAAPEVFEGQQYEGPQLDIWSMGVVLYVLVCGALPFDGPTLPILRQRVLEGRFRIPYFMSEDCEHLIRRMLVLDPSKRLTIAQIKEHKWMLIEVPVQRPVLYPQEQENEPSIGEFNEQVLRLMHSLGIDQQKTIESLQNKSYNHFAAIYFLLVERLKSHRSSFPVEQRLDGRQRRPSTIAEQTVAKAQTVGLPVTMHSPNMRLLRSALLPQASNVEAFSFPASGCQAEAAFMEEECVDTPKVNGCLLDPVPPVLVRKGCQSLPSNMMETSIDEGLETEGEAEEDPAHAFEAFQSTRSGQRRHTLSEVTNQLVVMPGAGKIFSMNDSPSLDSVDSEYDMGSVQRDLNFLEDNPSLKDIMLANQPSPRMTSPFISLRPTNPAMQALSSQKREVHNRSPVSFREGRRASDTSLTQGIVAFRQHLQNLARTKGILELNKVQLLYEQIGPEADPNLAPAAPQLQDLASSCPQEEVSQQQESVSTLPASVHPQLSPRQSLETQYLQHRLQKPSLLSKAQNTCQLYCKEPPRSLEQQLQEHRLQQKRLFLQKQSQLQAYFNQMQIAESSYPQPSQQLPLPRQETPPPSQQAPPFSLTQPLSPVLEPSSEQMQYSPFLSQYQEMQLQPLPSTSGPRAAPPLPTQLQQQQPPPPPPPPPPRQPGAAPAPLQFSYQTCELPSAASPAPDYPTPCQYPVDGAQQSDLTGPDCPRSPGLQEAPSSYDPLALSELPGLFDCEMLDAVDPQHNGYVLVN

| SMILES | EC50 [1] | IC50 [2] |
| --- | --- | --- |
| COC(=O)C1(c2ccn3c(-c4cc(OC)c(C(=O)NC5CC5)c(OC(F)F)c4)cnc3c2)CC1 [Cpd 113, methyl 1-[3-[4-(cyclopropylcarbamoyl)-3-(difluoromethoxy)-5-methoxy-phenyl]imidazo[1,2-a]pyridin-7-yl]cyclopropanecarboxylate] | 100 to 1000 nM | > 500 nM |
| COc1cc(-c2cnc3cc(C4(C#N)CCOCC4)ccn23)cc(OC(F)F)c1C(=O)NC1CC1 [Cpd 116, 4-[7-(4-cyanotetrahydropyran-4-yl)imidazo[1,2-a]pyridin-3-yl]-N-cyclopropyl-2-(difluoromethoxy)-6-methoxy-benzamide] | 1000 to 5000 nM | > 500 nM |
| COc1cc(-c2cnc3cc(C4(C#N)COC4)ccn23)cc(OC(F)F)c1C(=O)NC1CC1 [Cpd 117, 4-[7-(3-cyanooxetan-3-yl)imidazo[1,2-a]pyridin-3-yl]-N-cyclopropyl-2-(difluoromethoxy)-6-methoxy-benzamide] | 100 to 1000 nM | > 500 nM |
| COc1cc(-c2cnc3cc(C4(C#N)CCOC4)ccn23)cc(OC(F)F)c1C(=O)NC1CC1 (stereo not shown) [Cpd 123, 4-[7-(3-cyanotetrahydrofuran-3-yl)imidazo[1,2-a]pyridin-3-yl]-N-cyclopropyl-2-(difluoromethoxy)-6-methoxy-benzamide] | 1000 to 5000 nM | > 500 nM |
| CCOC(C)(C)c1ccn2c(-c3cc(OC)c(C(=O)NC4CC4)c(OC(F)F)c3)cnc2c1 [Cpd 128, N-cyclopropyl-2-(difluoromethoxy)-4-[7-(1-ethoxy-1-methyl-ethyl)imidazo[1,2-a]pyridin-3-yl]-6-methoxy-benzamide] | 100 to 1000 nM | > 500 nM |
| COc1cc(-c2cnc3cc(C(C)(O)C(F)(F)F)ccn23)cc(OC(F)F)c1C(=O)NC1CC1 (stereo not shown) [Cpd 129, N-cyclopropyl-2-(difluoromethoxy)-6-methoxy-4-[7-(2,2,2-trifluoro-1-hydroxy-1-methyl-ethyl)imidazo[1,2-a]pyridin-3-yl]benzamide] | 100 to 1000 nM | > 500 nM |
| COc1cc(-c2cnc3cc(C4(C#N)COC4)ccn23)cc(OC(F)F)c1C(=O)N[C@@H]1C[C@@H]1F [Cpd 130, 4-[7-(3-cyanooxetan-3-yl)imidazo[1,2-a]pyridin-3-yl]-2-(difluoromethoxy)-N-[(1R,2S)-2-fluorocyclopropyl]-6-methoxy-benzamide] | 100 to 1000 nM | > 500 nM |
| COc1cc(-c2cnc3cc(C(F)(F)CO)ccn23)cc(OC(F)F)c1C(=O)NC1CC1 [Cpd 136, N-cyclopropyl-4-[7-(1,1-difluoro-2-hydroxy-ethyl)imidazo[1,2-a]pyridin-3-yl]-2-(difluoromethoxy)-6-methoxy-benzamide] | 100 to 1000 nM | 100 to 500 nM |
| CCC(C)(O)c1ccn2c(-c3cc(OC)c(C(=O)NC4CC4)c(OC(F)F)c3)cnc2c1 (stereo not shown) [Cpd 137, N-cyclopropyl-2-(difluoromethoxy)-4-[7-(1-hydroxy-1-methyl-propyl)imidazo[1,2-a]pyridin-3-yl]-6-methoxy-benzamide] | 100 to 1000 nM | > 500 nM |
| COc1cc(-c2cnc3cc(C(C)(O)C4CC4)ccn23)cc(OC(F)F)c1C(=O)NC1CC1 (stereo not shown) [Cpd 138, N-cyclopropyl-4-[7-(1-cyclopropyl-1-hydroxy-ethyl)imidazo[1,2-a]pyridin-3-yl]-2-(difluoromethoxy)-6-methoxy-benzamide] | 100 to 1000 nM | > 500 nM |
| COc1cc(-c2cnc3cc(C(C)O)ccn23)cc(OC(F)F)c1C(=O)NC1CC1 (stereo not shown) [Cpd 140, N-cyclopropyl-2-(difluoromethoxy)-4-[7-(1-hydroxyethyl)imidazo[1,2-a]pyridin-3-yl]-6-methoxy-benzamide] | 1000 to 5000 nM | 100 to 500 nM |
| COc1cc(-c2cnc3cc(C(C)N4CCCCC4)ccn23)cc(OC(F)F)c1C(=O)NC1CC1 (stereo not shown) [Cpd 146, N-cyclopropyl-2-(difluoromethoxy)-6-methoxy-4-[7-[1-(1-piperidyl)ethyl]imidazo[1,2-a]pyridin-3-yl]benzamide] | 1000 to 5000 nM | > 500 nM |
| COc1cc(-c2cnc3cc(C(C)(C)CO)ccn23)cc(OC(F)F)c1C(=O)NC1CC1 [Cpd 150, N-cyclopropyl-2-(difluoromethoxy)-4-[7-(2-hydroxy-1,1-dimethyl-ethyl)imidazo[1,2-a]pyridin-3-yl]-6-methoxy-benzamide] | 100 to 1000 nM | > 500 nM |
| COc1cc(-c2cnc3cc(C4COC4)ccn23)cc(OC(F)F)c1C(=O)NC1CC1 [Cpd 174, N-cyclopropyl-2-(difluoromethoxy)-6-methoxy-4-[7-(oxetan-3-yl)imidazo[1,2-a]pyridin-3-yl]benzamide] | 100 to 1000 nM | 10 to 100 nM |

Further lines, results first:

| EC50 [1] | IC50 [2] | SMILES |
| --- | --- | --- |
| 100 to 1000 nM | > 500 nM | COc1cc(-c2cnc3cc(C(C)(C)CN4CCOCC4)ccn23)cc(OC(F)F)c1C(=O)NC1CC1 [Cpd 160, N-cyclopropyl-2-(difluoromethoxy)-4-[7-(1,1-dimethyl-2-morpholino-ethyl)imidazo[1,2-a]pyridin-3-yl]-6-methoxy-benzamide] |
| 100 to 1000 nM | 100 to 500 nM | COc1cc(-c2cnc3cc(C4CCOCC4)c(F)cn23)cc(OC(F)F)c1C(=O)NC1CC1 [Cpd 166, N-cyclopropyl-2-(difluoromethoxy)-4-(6-fluoro-7-tetrahydropyran-4-yl-imidazo[1,2-a]pyridin-3-yl)-6-methoxy-benzamide] |
| 100 to 1000 nM | 10 to 100 nM | COc1cc(-c2cnc3cc(C4CCC4)c(F)cn23)cc(OC(F)F)c1C(=O)NC1CC1 [Cpd 168, 4-(7-cyclobutyl-6-fluoro-imidazo[1,2-a]pyridin-3-yl)-N-cyclopropyl-2-(difluoromethoxy)-6-methoxy-benzamide] |
| 1000 to 5000 nM | > 500 nM | COc1cc(-c2cnc3cc(C4(O)CCOCC4)ccn23)cc(OC(F)F)c1C(=O)NC1CC1 [Cpd 170, N-cyclopropyl-2-(difluoromethoxy)-4-[7-(4-hydroxytetrahydropyran-4-yl)imidazo[1,2-a]pyridin-3-yl]-6-methoxy-benzamide] |
| 1000 to 5000 nM | > 500 nM | COc1cc(-c2cnc3cc(C4CCCN4C)ccn23)cc(OC(F)F)c1C(=O)NC1CC1 (stereo not shown) [Cpd 171, N-cyclopropyl-2-(difluoromethoxy)-6-methoxy-4-[7-(1-methylpyrrolidin-2-yl)imidazo[1,2-a]pyridin-3-yl]benzamide] |
| 100 to 1000 nM | > 500 nM | COc1cc(-c2cnc3cc(C(C)(C)C(C)O)ccn23)cc(OC(F)F)c1C(=O)NC1CC1 (stereo not shown) [Cpd 172, N-cyclopropyl-2-(difluoromethoxy)-4-[7-(2-hydroxy-1,1-dimethyl-propyl)imidazo[1,2-a]pyridin-3-yl]-6-methoxy-benzamide] |
| 100 to 1000 nM | 100 to 500 nM | COc1cc(-c2cnc3cc(C4(O)CCC4)ccn23)cc(OC(F)F)c1C(=O)NC1CC1 [Cpd 173, N-cyclopropyl-2-(difluoromethoxy)-4-[7-(1-hydroxycyclobutyl)imidazo[1,2-a]pyridin-3-yl]-6-methoxy-benzamide] |
| 1000 to 5000 nM | 100 to 500 nM | COc1cc(-c2cnc3cc(C(O)CC#N)ccn23)cc(OC(F)F)c1C(=O)NC1CC1 (stereo not shown) [Cpd 175, 4-[7-(2-cyano-1-hydroxy-ethyl)imidazo[1,2-a]pyridin-3-yl]-N-cyclopropyl-2-(difluoromethoxy)-6-methoxy-benzamide] |
| 1000 to 5000 nM | > 500 nM | COc1cc(-c2cnc3cc(C(C)(C#N)CO)ccn23)cc(OC(F)F)c1C(=O)NC1CC1 (stereo not shown) [Cpd 176, 4-[7-(1-cyano-2-hydroxy-1-methyl-ethyl)imidazo[1,2-a]pyridin-3-yl]-N-cyclopropyl-2-(difluoromethoxy)-6-methoxy-benzamide] |
| 1000 to 5000 nM | > 500 nM | COc1cc(-c2cnc3cc(C4COCCN4C)ccn23)cc(OC(F)F)c1C(=O)NC1CC1 (stereo not shown) [Cpd 193, N-cyclopropyl-2-(difluoromethoxy)-6-methoxy-4-[7-(4-methylmorpholin-3-yl)imidazo[1,2-a]pyridin-3-yl]benzamide] |
| 100 to 1000 nM | > 500 nM | COCC(C)(C#N)c1ccn2c(-c3cc(OC)c(C(=O)NC4CC4)c(OC(F)F)c3)cnc2c1 (stereo not shown) [Cpd 195, 4-[7-(1-cyano-2-methoxy-1-methyl-ethyl)imidazo[1,2-a]pyridin-3-yl]-N-cyclopropyl-2-(difluoromethoxy)-6-methoxy-benzamide] |
| 100 to 1000 nM | 100 to 500 nM | COc1cc(-c2cnc3cc(C4(O)CCC4)ccn23)cc(OC(F)F)c1C(=O)N[C@@H]1C[C@@H]1F [Cpd 205, 2-(difluoromethoxy)-N-[(1R,2S)-2-fluorocyclopropyl]-4-[7-(1-hydroxycyclobutyl)imidazo[1,2-a]pyridin-3-yl]-6-methoxy-benzamide] |
| 100 to 1000 nM | 10 to 100 nM | COc1cc(-c2cnc3cc(C4COC4)ccn23)cc(OC(F)F)c1C(=O)N[C@@H]1C[C@@H]1F [Cpd 206, 2-(difluoromethoxy)-N-[(1R,2S)-2-fluorocyclopropyl]-6-methoxy-4-[7-(oxetan-3-yl)imidazo[1,2-a]pyridin-3-yl]benzamide] |
| 100 to 1000 nM | 100 to 500 nM | COc1cc(-c2cnc3cc(C4(F)COC4)ccn23)cc(OC(F)F)c1C(=O)NC1CC1 [Cpd 207, N-cyclopropyl-2-(difluoromethoxy)-4-[7-(3-fluorooxetan-3-yl)imidazo[1,2-a]pyridin-3-yl]-6-methoxy-benzamide] |
| 100 to 1000 nM | > 500 nM | COc1cc(-c2cnn3cc(C(C)(C)C#N)ccc23)cc(OC(F)F)c1C(=O)NC1CC1 [Cpd 208, 4-[6-(1-cyano-1-methyl-ethyl)pyrazolo[1,5-a]pyridin-3-yl]-N-cyclopropyl-2-(difluoromethoxy)-6-methoxy-benzamide] |
